Test results from ChEMBL document CHEMBL5537113, “Discovery of 1,2-diaryl-3-oxopyrazolidin-4-carboxamides as a new class of MurA enzyme inhibitors and characterization of their antibacterial activity” (Eur J Med Chem, 2023).

Legend:
[1] = test system: Clostridioides difficile; test: Antibacterial activity against Clostridioides difficile NR-32903 assessed as reduction in microbial growth incubated for 48 hrs by broth microdilution method; format: functional
[2] = test system: Clostridioides difficile; test: Antibacterial activity against Clostridioides difficile NR-32904 assessed as reduction in microbial growth incubated for 48 hrs by broth microdilution method; format: functional
[3] = test system: Clostridioides difficile; test: Selectivity ratio of MBC for antibacterial activity against Clostridioides difficile NR-49284 to MIC for antibacterial activity against Clostridioides difficile NR-49284; format: functional
[4] = test system: Bifidobacterium angulatum; test: Antibacterial activity against Bifidobacterium angulatum HM 1189 assessed as reduction in microbial growth incubated for 48 hrs by broth microdilution method; format: functional
[5] = biological target: UDP-N-acetylglucosamine 1-carboxyvinyltransferase (Escherichia coli K-12) (UniProt P0A749); test: Inhibition of Escherichia coli K12 His-tagged MurA expressed in Escherichia coli BL21 cells at 50 uM using UNAG as substrate pre incubated for 15 mins followed by substrate addition and measured after 15 mins by microplate reader analysis relative to control; details: time 30.0 min
[6] = biological target: UDP-N-acetylglucosamine 1-carboxyvinyltransferase (Escherichia coli K-12, UniProt P0A749); test: Inhibition of Escherichia coli K12 His-tagged MurA expressed in Escherichia coli BL21 cells using UNAG as substrate pre incubated for 15 mins followed by substrate addition and measured after 15 mins by microplate reader analysis
[7] = Stability of compound in LB broth medium at 10 uM incubated for 24 hrs at 37 degC by UHPLC-MS/MS analysis; format: physicochemical
[8] = test system: Clostridioides difficile; test: Antibacterial activity against Clostridioides difficile NR-49284 assessed as reduction in microbial growth incubated for 48 hrs by broth microdilution method; format: functional
[9] = test system: Bacteroides fragilis; test: Antibacterial activity against Bacteroides fragilis HM 719 assessed as reduction in microbial growth incubated for 48 hrs by broth microdilution method; format: functional
[10] = test system: Lactobacillus crispatus; test: Antibacterial activity against Lactobacillus crispatus HM 420 assessed as reduction in microbial growth incubated for 48 hrs by broth microdilution method; format: functional
[11] = test system: Clostridioides difficile; test: Selectivity ratio of MBC for antibacterial activity against Clostridioides difficile NR-32895 to MIC for antibacterial activity against Clostridioides difficile NR-32895; format: functional
[12] = test system: Bifidobacterium longum; test: Antibacterial activity against Bifidobacterium longum HM 846 assessed as reduction in microbial growth incubated for 48 hrs by broth microdilution method; format: functional
[13] = test system: Clostridioides difficile; test: Antibacterial activity against Clostridioides difficile NR-49278 assessed as reduction in microbial growth incubated for 48 hrs by broth microdilution method; format: functional
[14] = test system: Clostridioides difficile; test: Bactericidal activity against Clostridioides difficile NR-49284 assessed as reduction in microbial growth by broth microdilution method; format: functional
[15] = test system: Bifidobacterium breve; test: Antibacterial activity against Bifidobacterium breve HM1120 assessed as reduction in microbial growth incubated for 48 hrs by broth microdilution method; format: functional
[16] = test system: Clostridioides difficile; test: Selectivity ratio of MBC for antibacterial activity against Clostridioides difficile NR-32904 to MIC for antibacterial activity against Clostridioides difficile NR-32904; format: functional
[17] = Stability of compound in Staphylococcus aureus Newman cell lysate at 10 uM incubated for 24 hrs at 37 degC by UHPLC-MS/MS analysis; format: ADME, subcellular
[18] = test system: Clostridioides difficile; test: Antibacterial activity against Clostridioides difficile NR-13427 assessed as reduction in microbial growth incubated for 48 hrs by broth microdilution method; format: functional
[19] = test system: Clostridioides difficile; test: Antibacterial activity against Clostridioides difficile NR-49288 assessed as reduction in microbial growth incubated for 48 hrs by broth microdilution method; format: functional
[20] = test system: Bacteroides fragilis; test: Antibacterial activity against Bacteroides fragilis HM 718 assessed as reduction in microbial growth incubated for 48 hrs by broth microdilution method; format: functional
[21] = test system: Clostridioides difficile; test: Bactericidal activity against Clostridioides difficile NR-32895 assessed as reduction in microbial growth by broth microdilution method; format: functional
[22] = test system: Clostridioides difficile; test: Antibacterial activity against Clostridioides difficile HM-88 assessed as reduction in microbial growth incubated for 48 hrs by broth microdilution method; format: functional
[23] = test system: Clostridioides difficile; test: Antibacterial activity against Clostridioides difficile NR-49291 assessed as reduction in microbial growth incubated for 48 hrs by broth microdilution method; format: functional
[24] = test system: Clostridioides difficile; test: Antibacterial activity against Clostridioides difficile NR-49286 assessed as reduction in microbial growth incubated for 48 hrs by broth microdilution method; format: functional
[25] = test system: Lactobacillus crispatus; test: Antibacterial activity against Lactobacillus crispatus HM 103 assessed as reduction in microbial growth incubated for 48 hrs by broth microdilution method; format: functional
[26] = test system: Clostridioides difficile; test: Bactericidal activity against Clostridioides difficile ATCC 43255 assessed as reduction in microbial growth by broth microdilution method; format: functional
[27] = test system: Clostridioides difficile; test: Bactericidal activity against Clostridioides difficile ATCC BAA1870 assessed as reduction in microbial growth by broth microdilution method; format: functional
[28] = test system: Clostridioides difficile; test: Antibacterial activity against Clostridioides difficile NR-49287 assessed as reduction in microbial growth incubated for 48 hrs by broth microdilution method; format: functional
[29] = test system: Bacteroides fragilis; test: Antibacterial activity against Bacteroides fragilis HM 709 assessed as reduction in microbial growth incubated for 48 hrs by broth microdilution method; format: functional
[30] = test system: Clostridioides difficile; test: Antibacterial activity against Clostridioides difficile NR-49294 assessed as reduction in microbial growth incubated for 48 hrs by broth microdilution method; format: functional
[31] = test system: Clostridioides difficile; test: Selectivity ratio of MBC for antibacterial activity against Clostridioides difficile ATCC BAA1870 to MIC for antibacterial activity against Clostridioides difficile ATCC BAA1870; format: functional
[32] = test system: Enterococcus faecalis; test: Antibacterial activity against Enterococcus faecalis ATCC 51299 assessed as reduction in microbial growth by CLSI based broth microdilution method; format: functional
[33] = test system: Clostridioides difficile; test: Antibacterial activity against Clostridioides difficile ATCC BAA1870 assessed as reduction in microbial growth incubated for 48 hrs by broth microdilution method; format: functional
[34] = test system: Clostridioides difficile; test: Antibacterial activity against Clostridioides difficile NR-49282 assessed as reduction in microbial growth incubated for 48 hrs by broth microdilution method; format: functional
[35] = test system: Clostridioides difficile; test: Antibacterial activity against Clostridioides difficile NR-32895 assessed as reduction in microbial growth incubated for 48 hrs by broth microdilution method; format: functional
[36] = test system: Bacteroides fragilis; test: Antibacterial activity against Bacteroides fragilis HM 20 assessed as reduction in microbial growth incubated for 48 hrs by broth microdilution method; format: functional
[37] = test system: Clostridioides difficile; test: Antibacterial activity against Clostridioides difficile NR-13436 assessed as reduction in microbial growth incubated for 48 hrs by broth microdilution method; format: functional
[38] = test system: Clostridioides difficile; test: Bactericidal activity against Clostridioides difficile NR-49278 assessed as reduction in microbial growth by broth microdilution method; format: functional
[39] = test system: Clostridioides difficile; test: Antibacterial activity against Clostridioides difficile NR-49279 assessed as reduction in microbial growth incubated for 48 hrs by broth microdilution method; format: functional
[40] = test system: Lactobacillus gasseri; test: Antibacterial activity against Lactobacillus gasseri HM 403 assessed as reduction in microbial growth incubated for 48 hrs by broth microdilution method; format: functional
[41] = test system: Bifidobacterium breve; test: Antibacterial activity against Bifidobacterium breve HM 412 assessed as reduction in microbial growth incubated for 48 hrs by broth microdilution method; format: functional
[42] = test system: Escherichia coli; test: Antibacterial activity against Escherichia coli harboring tolC deletion mutant assessed as reduction in microbial growth incubated for 16 hrs by serial dilution method; format: functional
[43] = test system: Clostridioides difficile; test: Antibacterial activity against Clostridioides difficile NR-49283 assessed as reduction in microbial growth incubated for 48 hrs by broth microdilution method; format: functional

Sequence of UDP-N-acetylglucosamine 1-carboxyvinyltransferase (Escherichia coli K-12) (P0A749 whole entry): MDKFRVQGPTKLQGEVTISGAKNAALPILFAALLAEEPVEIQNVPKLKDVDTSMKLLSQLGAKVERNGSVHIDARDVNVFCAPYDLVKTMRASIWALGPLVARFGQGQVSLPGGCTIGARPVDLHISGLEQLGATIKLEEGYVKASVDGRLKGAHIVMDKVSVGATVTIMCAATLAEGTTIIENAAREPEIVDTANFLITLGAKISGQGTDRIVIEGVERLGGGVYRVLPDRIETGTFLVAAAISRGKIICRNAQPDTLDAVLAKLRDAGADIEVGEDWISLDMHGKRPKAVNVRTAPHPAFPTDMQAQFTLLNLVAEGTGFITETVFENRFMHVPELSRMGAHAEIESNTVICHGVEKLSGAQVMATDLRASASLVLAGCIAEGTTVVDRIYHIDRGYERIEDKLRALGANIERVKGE
Sequence of UDP-N-acetylglucosamine 1-carboxyvinyltransferase (P0A749 whole entry): as above

For `O=C(Nc1ncc([N+](=O)[O-])s1)C1CN(c2ccc(Cl)cc2)N(c2ccc(Cl)cc2)C1=O` (stereo unspecified), the MIC [1] was 0.5 µg/mL, the MIC [2] was 0.5 µg/mL and the Ratio [3] was 1. It also gave an MIC [4] greater than 64 µg/mL, an inhibition [5] of 70.2% and an IC50 [6] of 10.2 µM. The Stability [7] was “Stable”, the MIC [8] was 0.5 µg/mL and the MIC [9] was 4 µg/mL. For the same compound, the MIC [10] was greater than 64 µg/mL, the Ratio [11] was 1 and the MIC [12] was 32 µg/mL. For the same compound, the MIC [13] was 0.5 µg/mL, the MBC [14] was 0.5 µg/mL and the MIC [15] was greater than 64 µg/mL. For the same compound, the Ratio [16] was 1, the Stability [17] was “Stable” and the MIC [18] was 0.5 µg/mL. It also gave an MIC [19] of 0.25 µg/mL, an MIC [20] of 8 µg/mL and an MBC [21] of 1 µg/mL. The MIC [22] was 0.5 µg/mL, the MIC [23] was 1 µg/mL and the MIC [24] was 0.5 µg/mL. For the same compound, the MIC [25] was greater than 64 µg/mL, the MBC [26] was 0.5 µg/mL and the MBC [27] was 0.5 µg/mL. The MIC [28] was 0.5 µg/mL, the MIC [29] was 4 µg/mL and the MIC [30] was 0.5 µg/mL. The Ratio [31] was 1, the MIC [32] was greater than 64 µg/mL and the MIC [33] was 0.5 µg/mL. It also gave an MIC [34] of 0.5 µg/mL, an MIC [35] of 1 µg/mL and an MIC [36] of 8 µg/mL. For the same compound, the MIC [37] was 1 µg/mL, the MBC [38] was 0.5 µg/mL and the MIC [39] was 0.5 µg/mL. It also gave an MIC [40] greater than 64 µg/mL, an MIC [41] greater than 64 µg/mL and an MIC [42] greater than 40 µM. For the same compound, the MIC [43] was 0.5 µg/mL.

Work on `O=C(Nc1ncc([N+](=O)[O-])s1)C1CN(c2cccc(Cl)c2)N(c2cccc(Cl)c2)C1=O` (stereo unspecified) yielded an MIC [1] of 0.5 µg/mL, an MIC [2] of 0.5 µg/mL and a Ratio [3] of 1. It also gave an MIC [4] of 32 µg/mL, an inhibition [5] of 67.6% and an IC50 [6] of 9.8 µM. For the same compound, the Stability [7] was “Stable”, the MIC [8] was 0.5 µg/mL and the MIC [9] was 8 µg/mL. The MIC [10] was greater than 64 µg/mL, the Ratio [11] was 1 and the MIC [12] was 16 µg/mL. The MIC [13] was 0.5 µg/mL, the MBC [14] was 0.5 µg/mL and the MIC [15] was 64 µg/mL. For the same compound, the Ratio [16] was 1, the Stability [17] was “Stable” and the MIC [18] was 0.5 µg/mL. It also gave an MIC [19] of 0.25 µg/mL, an MIC [20] of 8 µg/mL and an MBC [21] of 1 µg/mL. For the same compound, the MIC [22] was 0.5 µg/mL, the MIC [23] was 1 µg/mL and the MIC [24] was 0.5 µg/mL. The MIC [25] was greater than 64 µg/mL, the MBC [26] was 0.25 µg/mL and the MBC [27] was 0.25 µg/mL. For the same compound, the MIC [28] was 0.5 µg/mL, the MIC [29] was 4 µg/mL and the MIC [30] was 0.5 µg/mL. The Ratio [31] was 1, the MIC [32] was greater than 64 µg/mL and the MIC [33] was 0.25 µg/mL. The MIC [34] was 0.5 µg/mL, the MIC [35] was 0.5 µg/mL and the MIC [36] was 4 µg/mL. For the same compound, the MIC [37] was 0.5 µg/mL, the MBC [38] was 0.5 µg/mL and the MIC [39] was 0.25 µg/mL. For the same compound, the MIC [40] was greater than 64 µg/mL, the MIC [41] was 64 µg/mL and the MIC [42] was greater than 40 µM. The MIC [43] was 0.5 µg/mL.
